Measurements as given in article doi:10.1101/2024.06.26.600887v2 (biorxiv, 2024).

Key:
HAO1-HiBiT = molecular target: T1, HAO1-HiBiT (Homo sapiens, UniProt Q9UJM8); experiment: SplitLuc CETSA in HEK293T lysate, LgBiT luminescence; type: biochemical
T1 sequence (Q9UJM8 1-370): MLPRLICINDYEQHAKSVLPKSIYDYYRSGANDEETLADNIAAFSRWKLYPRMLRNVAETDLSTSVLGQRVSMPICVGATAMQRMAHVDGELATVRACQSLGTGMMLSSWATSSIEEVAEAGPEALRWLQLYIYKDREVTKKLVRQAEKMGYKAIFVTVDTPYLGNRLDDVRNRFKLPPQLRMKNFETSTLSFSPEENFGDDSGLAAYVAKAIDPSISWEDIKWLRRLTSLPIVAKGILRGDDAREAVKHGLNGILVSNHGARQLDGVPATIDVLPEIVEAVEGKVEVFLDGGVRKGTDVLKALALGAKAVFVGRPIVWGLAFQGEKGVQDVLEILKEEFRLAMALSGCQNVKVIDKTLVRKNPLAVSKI

[1] = molecular target: T2, His-HAO1 (recombinant glycolate oxidase, 2-hydroxyacid oxidase) (Homo sapiens, UniProt Q9UJM8); experiment: Amplex Red activity assay; type: biochemical
T2 sequence (Q9UJM8 1-370): T1 sequence (Q9UJM8 1-370)

[2] = molecular target: T2, His-HAO1 (recombinant glycolate oxidase, 2-hydroxyacid oxidase); experiment: DSF thermal stabilisation, SYPRO Orange; type: binding
[3] = molecular target: T2, His-HAO1 (recombinant glycolate oxidase, 2-hydroxyacid oxidase); experiment: SPR; type: binding

| EC50 (HAO1-HiBiT) [nM] | IC50 [1] [nM] | EC50 [2] [nM] | Kd [3] [nM] | SMILES |
| --- | --- | --- | --- | --- |
| 2200 | 25.1 | 5010 | 3.9 | NS(=O)(=O)c1ccc(Cc2c(-c3ccc(F)c(-c4ccc(Oc5nn[nH]c5C(=O)O)cc4)c3)nn(-c3nc(C(=O)O)cs3)c2CC2CC2)cc1F [compound 1, Compound 1] |
| 1800 | 20 | 3980 | 4.4 | O=C(O)c1nn[nH]c1Oc1ccc(-c2ccc(C3CC(F)(F)C3)cc2)cc1 [compound 2, Compound 2] |
